One data set relates to hangover. Briefly: clinical self-experiment on hangover symptoms after alcohol consumption. Type of data set: in vivo, human. The settings on record: one inventor on themself; 50 mg orally (capsule) just prior to drinking, 50 mg during, 50 mg next morning; total 150 mg in fourteen hours. An excerpt: The invention is based, in part, on a clinical experiment that an inventor of the invention described herein conducted on themself using SELBEX® (geranylgeranylacetone). On one occasion in the evening, they consumed an excessive amount of alcoholic beverages and awoke the following morning experiencing abdominal discomfort, nausea, fatigue, and headache. The normal measures that they had taken in the past to ameliorate hangover provided little relief. They decided that on the next occasion on which they would be drinking alcoholic beverages, they would ingest SELBEX® (geranylgeranylacetone) to determine whether it provided relief. Thus, on a subsequent evening, just prior to the drinking of alcoholic beverages, they ingested 50 mg of SELBEX® (geranylgeranylacetone) orally, in the form of a capsule marketed commercially by Eisai Co., Ltd. During the course of the evening, as they continued drinking alcoholic beverages, they ingested an additional 50 mg of SELBEX® (geranylgeranylacetone) orally. The next morning when they awoke, they ingested an additional 50 mg of SELBEX® (geranylgeranylacetone), bringing the total ingested during a fourteen hour period to 150 mg.

For data set [1] the following is noted: cited from earlier work.
The conditions of data set [2]: cited from earlier work. This is another data set of the same source.

In the case of `CC(=O)CC/C=C(\C)CC/C=C(\C)CC/C=C(\C)CCC=C(C)C` [SELBEX® (geranylgeranylacetone), 3:2 (5E:5Z) geometrical mixture of (9E,13E)-6,10,14,18-tetramethyl-5,9,13,17-nonadecatetraen-2-one], the “symptoms of hangover (abdominal discomfort, nausea, fatigue, and headache)” value in the data set on hangover was “either abolished or markedly alleviated”. For the same compound, in data set [1] (methanol, ethanol, acetone, chloroform, and hexane), the “miscibility with organic solvents” value is recorded as “miscible”. In data set [1] (water), the solubility in water result is “practically insoluble”. Besides, the stability to air entry in data set [2] is recorded as “affected by air”.

(Values after patent publication US7087649B2, “Methods for preventing and treating diseases and conditions associated with cellular stress” (Eisai Co., Ltd., priority 2001, dated 2006).)
